{
  "source": "patent US10881642B2",
  "about": "“Autophagy enhancer and use thereof” (Industry-Academic Cooperation Foundation, Yonsei University, priority 2016, dated 2021)",
  "key": {"HFD-fed C57BL/6 mice": {"tested_on": "HFD-fed C57BL/6 mice", "test": "Metabolic profile of HFD-fed mice (diet-induced obesity)", "assay_type": "in vivo", "conditions": "for non-fasting blood glucose level: 50 mg/kg 3 times a week", "method": "FIG. 12 indicates the improvement of the metabolic profile of HFD-feed mice by MSL-7: (FIG. 12A) Confocal microscopic result of HeLa cells transfected with tandem mRFP-GFP-LC3 and treated with MSL-7 in which red puncta indicates autophagolysosome. (FIG. 12B, 12C) 8 week old male C57BL/6 mice were fed with HFD or normal chow diet (NCD) for 8 weeks, and then 50 mg/kg MSL-7 was administered three times a week for 8 weeks. Non-fasting glucose level (FIG. 12B) and body weight (FIG. 12C) were monitored. (FIG. 12D) IPGTT. (FIG. 12E) AUC curve of (FIG. 12D). (FIG. 12F) ITT. (FIG. 12G) AUC curve of (FIG. 12F).\nScreening of autophagy enhancer. […] Luciferase assay. Firefly and Renilla luciferase assays were conducted using the Dual-Luciferase Reporter Assay System (Promega) according to the manufacturer's recommendation. In brief, cells were lysed in 1× lysis buffer and subjected to a single round of freezing/thawing. Firefly luciferase was determined after mixing 5 μl of lysate with 25 μl of Luciferase Assay Reagent II. Renilla luciferase was then determined after further addition of 20 ul of Stop&Glo Reagent. Cell culture and media and drugs treatment. HeLa, TFEB-GFP-HeLa, SK-HEP1 (hepatoma cell line) and Hepa1c1c7 (hepatoma cell line) cells were cultured in the following media: (normal) Dulbecco's modified Eagle's medium (DMEM, Sigma-Aldrich) supplemented with 10% FBS and 1% penicillin/streptomycin; (starvation) HBSS media with Ca and Mg supplemented with 10 mM HEPES; Drugs treatment: MSL compound (50-100 μM); Rapamycin ([…]); Torin-1 (1 μM); Bafilomycin (100 nM); Cyclosporin A (10 μM); and FK506 (5 μM). Cells were treated with oleic acid (400 μM) and palmitic acid (400 μM) for 24 h. Where indicated, cells were washed off with HBSS and replaced by DMEM with or without MSL for 16 h. INS-1 cells, a insulinoma cell line of […] were cultured as described previously (Kim et al., 2014 ibid) in the presence or absence of bafilomycin and treated with MSL-7. Lactate dehydrogenase (LDH) assay. Cytotoxicity was determined by the measurement of LDH release in cell culture media using the LDH kit (Roche), according to the protocol from the manufacturer. Transfection and plasmids. Cells were transiently transfected with DNA plasmids 3×FLAG-hTFEB (A Ballabio), FYVE-dsRed (Cantley LC), RFP-LC3 or mRFP-GFP-LC3 using lipofectamine 2000 (Invitrogen) according to the protocol from the manufacturer. INS-1 cells were transfected with prepro-mIAPP-HA or prepro-hIAPP-HA using jetPEIDNA according to the manufacturer's protocol. Imaging and image quantification. Imaging was performed with a ×40 objective on an LSM780 confocal microscope (Zeiss). Image analysis (spot count per cell) was performed using Image J. When indicated, cells were stained for lipid droplets with BODIPY 493/503 (Invitrogen, […], 20 min) according to the manufacturer's methods. Formation of acidic vesicular organelles was quantitated by staining the cells with acridine orange (Invitrogen, 5 ug/ml, 10 min). Antibodies and western blotting. Cells or tissues were solubilized in lysis buffer supplemented with protease and phosphatase inhibitors and protein concentration was measured by the Bradford method. Ten to 30 micrograms were loaded on 4-12% Bis-Tris gel (NUPAGE, Invitrogen) or 8-15% SDS-PAGE, transferred to PVDF membranes and analyzed by western blot using the ECL method (Pierce). The following antibodies were used: LC3 (Novus NB100-2331, 1:1,000), p62 (Progen GP62-C, 1:1,000), b-actin (Santa Cruz sc-47778, 1:5,000), FLAG (Sigma-Aldrich F1804, 1:2,000), 70S6K (Cell Signaling 9202S, 1:1000), p-70S6K (Cell Signaling 9206S, 1:1000), mTOR (Cell Signaling 2983, 1:1000), pmTOR (Cell Signaling 2971S, 1:1000), TFEB (Cell Signaling 4240, 1:1000). Protein levels were quantified by using ImageJ software analysis. RNA extraction, RT and real-time RT-PCR. […]"}, "[1]": {"test": "Liver microsomal stability", "assay_type": "in vitro ADME", "conditions": "30 min incubation with human liver microsome, 10 μM"}, "ob/ob mice": {"tested_on": "ob/ob mice", "test": "In vivo autophagic flux and TFEB-related gene expression in liver", "method": "FIG. 7A is the result of the experiment in which ob/ob mice were peritoneally injected with 30 mg/kg leupeptin and then after 1 hr, vehicle control or MSL compound were peritoneally administered. Three hours post administration, the liver lysates were prepared and immunoblotted. The numbers above the bands indicates fold changes normalized to beta actin bands. FIG. 7B indicates the concentration of mRNA of TFEB related genes measured by performing RT-PCT using a total RNA isolated from liver sample treated same as above except that Leupeptin was not administered. The values represent mean±S.D of fold changes compared to control mice (vehicle control) obtained from three mice.\nScreening of autophagy enhancer. […] Luciferase assay. Firefly and Renilla luciferase assays were conducted using the Dual-Luciferase Reporter Assay System (Promega) according to the manufacturer's recommendation. In brief, cells were lysed in 1× lysis buffer and subjected to a single round of freezing/thawing. Firefly luciferase was determined after mixing 5 μl of lysate with 25 μl of Luciferase Assay Reagent II. Renilla luciferase was then determined after further addition of 20 ul of Stop&Glo Reagent. Cell culture and media and drugs treatment. […] Cytotoxicity was determined by the measurement of LDH release in cell culture media using the LDH kit (Roche), according to the protocol from the manufacturer. […] Imaging and image quantification. […] Formation of acidic vesicular organelles was quantitated by staining the cells with acridine orange (Invitrogen, 5 ug/ml, 10 min). […] Cells or tissues were solubilized in lysis buffer supplemented with protease and phosphatase inhibitors and protein concentration was measured by the Bradford method. Ten to 30 micrograms were loaded on 4-12% Bis-Tris gel (NUPAGE, Invitrogen) or 8-15% SDS-PAGE, transferred to PVDF membranes and analyzed by western blot using the ECL method (Pierce). […] Protein levels were quantified by using ImageJ software analysis. […]"}},
  "data": [
    {"smiles": "COc1oc(-c2ccccc2Cl)nc1S(=O)(=O)c1ccccc1", "note": "[MSL-7, 2-(2-chlorophenyl)-5-methoxy-4-(phenylsulfonyl) oxazole]", "values": [
      {"measurement": "non-fasting blood glucose level", "setting": "HFD-fed C57BL/6 mice; HFD, 8 weeks", "value": "significantly reduced"},
      {"measurement": "area under the curves (AUCs) of IPGTT and ITT", "setting": "HFD-fed C57BL/6 mice; HFD, 8 weeks", "value": "reduced"},
      {"measurement": "body weight", "setting": "HFD-fed C57BL/6 mice; HFD, 8 weeks", "value": "without changing the body weight"},
      {"measurement": "glucose tolerance / glucose intolerance (IPGTT)", "setting": "HFD-fed C57BL/6 mice; HFD, 8 weeks", "value": "significantly improved"},
      {"measurement": "insulin sensitivity (ITT)", "setting": "HFD-fed C57BL/6 mice; HFD, 8 weeks", "value": "significantly improved"},
      {"measurement": "glucose profile of lean or chow-fed mice", "setting": "HFD-fed C57BL/6 mice; lean or chow-fed mice", "value": "does not affect"},
      {"measurement": "microsomal stability, remaining", "setting": "[1]", "value": 90.5, "unit": "%"}
    ]},
    {"smiles": "CSc1oc(-c2ccccc2)nc1S(=O)(=O)c1ccc(F)cc1", "note": "[MSL]", "values": [
      {"measurement": "autophagic activity in the liver measured after leupeptin administration", "setting": "ob/ob mice; after 8 weeks of administration", "value": "increased"},
      {"measurement": "LC3-I to -II conversion in the liver", "setting": "ob/ob mice; after pretreatment with leupeptin", "value": "increased"},
      {"measurement": "expression of TFEB-regulated genes", "setting": "ob/ob mice; liver, compared to controls", "value": "significantly higher"},
      {"measurement": "non-fasting blood glucose level", "setting": "HFD-fed C57BL/6 mice; HFD, 8 weeks", "value": "reduced non-fasting blood glucose level and glucose intolerance in mice fed high-fat diet (HFD). however, statistical significance was not achieved for most comparisons"},
      {"measurement": "glucose tolerance / glucose intolerance (IPGTT)", "setting": "HFD-fed C57BL/6 mice; HFD, 8 weeks", "value": "reduced non-fasting blood glucose level and glucose intolerance in mice fed high-fat diet (HFD). however, statistical significance was not achieved for most comparisons"},
      {"measurement": "microsomal stability, remaining", "setting": "[1]", "value": "less than 10%"}
    ]}
  ]
}
